# Reference: patent US12643871B2, “Aryl formamide compound containing chiral sulfur oxide or salt thereof, preparation method, herbicidal composition and use thereof” (Qingdao Kingagroot Chemical Compound Co., Ltd., priority 2019, dated 2026)
# Assays:
# Abutilon theophrasti [1] = experiment: Weeding effect in post-emergence stage; type: in vivo; conditions: 250 g/ha; 2 leaf stage; 15 days after application; fresh weight control rate
# Outline: (§1)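 Greenhouse pot-grown weeds were sprayed at the 2-leaf stage, 2 weeks after sowing, with compound in acetone/Tween 80 plus 1.5 L/ha methyl oleate EC, at 500, 250, 125, 60, 30 or 15 g/ha. Fresh-weight growth control was scored 15 days later on a 0–5 scale, mean of three repeats.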
# Amaranthus retroflexus = experiment: Weeding effect in post-emergence stage; type: in vivo; conditions: 250 g/ha; 2 leaf stage; 15 days after application; fresh weight control rate
# Outline: as §1
# Digitaria sanguinalis [2] = experiment: Weeding effect in post-emergence stage; type: in vivo; conditions: 250 g/ha; 2 leaf stage; 15 days after application; fresh weight control rate
# Outline: as §1
# Echinochloa crusgali [3] = experiment: Weeding effect in post-emergence stage; type: in vivo; conditions: 250 g/ha; 2 leaf stage; 15 days after application; fresh weight control rate
# Outline: as §1
# Setaria viridis = experiment: Weeding effect in post-emergence stage; type: in vivo; conditions: 250 g/ha; 2 leaf stage; 15 days after application; fresh weight control rate
# Outline: as §1
# Abutilon theophrasti [4] = experiment: Comparison experiment (post-emergence) against racemate / S configuration; type: in vivo; conditions: 30 g/ha; 3-4 weeks after sowing, 4-5 leaf-stage of weed, 25DAA
# Description: (§2) The above growth control rates are fresh weight control rates.
# (§3) Experiment on weeding effect in post-emergence stage: monocotyledonous and dicotyledonous weed seeds (Descurainia sophia, Capsella bursa-pastoris, Galium aparine, Stellaria media, Lithospermum arvense, Rorippa indica, Alopecurus aequalis, Beckmannia syzigachne, Sclerochloa dura, Phleum paniculatum, Bromus japonicus, Aegilops tauschii, Phalaris arundinacea, Amaranthus retroflexus, Chenopodiaceae, Commelina communis, Sonchus arvensis, convolvulus arvensis, Cirsium setosum, Solanum nigrum, Acalypha australis, Digitaria sanguinalis, Echinochloa crusgalli, Setaria viridis, Setaria glauca, Leptochloa chinensis, Monochoria vaginalis, Sagittaria trifolia, Scirpus juncoides, Cyperus rotundus, Cyperus iria, Cyperus difformis, Fimbristylis, Portulaca oleracea, Xanthium sibiricum, Pharbitis nil) and major crop seeds (wheat, corn, rice, soybean, cotton, oilseed rape, millet, sorghum, potato, sesame, ricinus) were placed in plastic pots filled with soil, then covered with 0.5-2 cm of soil, allowed to grow in a good greenhouse environment. […] The tested compounds of the present invention were respectively dissolved in acetone, then added with Tween 80 and 1.5 liter/ha of emulsifiable concentrate of methyl oleate as synergist, diluted with a certain amount of water to obtain a solution with a certain concentration, and sprayed with a spray tower onto the plants. […]
# (§4) If there is no clear marker, the post-seedling test conditions are the same as above, and the experimental results are shown in Tables 4-7.
# Green Setaria viridis = experiment: as above; type: in vivo; conditions: 3-4 weeks after sowing, 4-5 leaf-stage of weed
# Description: as §2, §3, §4
# Leptochloa chinensis [5] = experiment: as above; type: in vivo
# Description: as §2, §3, §4
# Rice(Longyang 16) = experiment: Comparison experiment (post-emergence), crop safety on direct seeding rice; type: in vivo
# Description: as §2
# Experiment on weeding effect in post-emergence stage: monocotyledonous and dicotyledonous weed seeds (Descurainia sophia, Capsella bursa-pastoris, Galium aparine, Stellaria media, Lithospermum arvense, Rorippa indica, Alopecurus aequalis, Beckmannia syzigachne, Sclerochloa dura, Phleum paniculatum, Bromus japonicus, Aegilops tauschii, Phalaris arundinacea, Amaranthus retroflexus, Chenopodiaceae, Commelina communis, Sonchus arvensis, convolvulus arvensis, Cirsium setosum, Solanum nigrum, Acalypha australis, Digitaria sanguinalis, Echinochloa crusgalli, Setaria viridis, Setaria glauca, Leptochloa chinensis, Monochoria vaginalis, Sagittaria trifolia, Scirpus juncoides, Cyperus rotundus, Cyperus iria, Cyperus difformis, Fimbristylis, Portulaca oleracea, Xanthium sibiricum, Pharbitis nil) and major crop seeds (wheat, corn, rice, soybean, cotton, oilseed rape, millet, sorghum, potato, sesame, ricinus) were placed in plastic pots filled with soil, then covered with 0.5-2 cm of soil, allowed to grow in a good greenhouse environment. After 2 weeks of sowing, the test plants were treated in the 2 leaf stage. The tested compounds of the present invention were respectively dissolved in acetone, then added with Tween 80 and 1.5 liter/ha of emulsifiable concentrate of methyl oleate as synergist, diluted with a certain amount of water to obtain a solution with a certain concentration, and sprayed with a spray tower onto the plants. After the application, the plants were cultured for 15 days in the greenhouse, and then the experimental results of the weeding were counted. The doses of the used compounds were 500, 250, 125, 60, 30, 15 g/ha, and the averages were obtained by repeating for three times.
# as §4
# Longyang 16 is an important cultivated variety representative of long-grain fragrant rice in northeast China. Long-grain fragrant rice is sensitive to herbicides and prone to drug damage, especially HPPD herbicides such as mesotrione and benzobicylon. […] It was not consistent with the well-known structure-activity relationship that aryloxyphenoxypropionic acid herbicides and phenoxypropionic acid herbicides in effective form have high activity to weeds and heavy damage to crops, and in ineffective form have almost no activity.
# Echinochloa crusgali [6] = experiment: Weed control effect evaluation in rice field; type: in vivo; conditions: 60 g/ha; rice field pot, 14 days after treatment; ALS-inhibitor resistant weed from Heilongjiang
# Description: (§5) The activity level criteria for harmful plant damage (i.e., growth control rate) are as follows: • Level 5: growth control rate is above 85%; • Level 4: growth control rate is greater than or equal to 60% and less than 85%; • Level 3: growth control rate is greater than or equal to 40% and less than 60%; • Level 2: growth control rate is greater than or equal to 20% and less than 40%; • Level 1: growth control rate is greater than or equal to 5% and less than 20%; • Level 0: growth control rate is less than 5%.
# (§6) Rice field soil was loaded into a 1/1,000,000 ha pot. The seeds of Echinochloa crusgali, Scirpus juncoides, Bidens tripartita, Sagittaria trifolia, Monochoria vaginalis and Leptochloa chinensis were sowed and gently covered with soil, then left to stand still in greenhouse in the state of 0.5-1 cm of water storage. The tuber of Sagittaria trifolia was planted in the next day or 2 days later. It was kept at 3-4 cm of water storage thereafter. The weeds were treated by dripping the WP or SC water diluents prepared according to the common preparation method of the compounds of the present invention with pipette homogeneously to achieve specified effective amount when Echinochloa crusgali, Scirpus juncoides, Bidens tripartita, Monochoria vaginalis and Leptochloa chinensis reached 0.5 leaf stage and Sagittaria trifolia reached the time point of primary leaf stage.
# (§7) The fertility condition of Echinochloa crusgali, Scirpus juncoides, Bidens tripartita, Leptochloa chinensis, Sagittaria trifolia and Monochoria vaginalis 14 days after the treatment of the compound of the invention and the fertility condition of rice 21 days after the treatment of the compound of the invention respectively with the naked eye. Evaluate the weed control effect with 0-5 activity standard level. Many compounds show excellent activity and selectivity.
# Leptochloa chinensis [7] = experiment: Weed control effect evaluation in rice field; type: in vivo; conditions: 60 g/ha; rice field pot, 14 days after treatment
# Description: as §5, §6, §7
# Monochoria vaginalis = experiment: Weed control effect evaluation in rice field; type: in vivo; conditions: 60 g/ha; rice field pot, 14 days after treatment; ALS-inhibitor resistant weed from Heilongjiang
# Description: as §5, §6, §7
# Sagittaria trifolia = experiment: Weed control effect evaluation in rice field; type: in vivo; conditions: 60 g/ha; rice field pot, 14 days after treatment; ALS-inhibitor resistant weed from Heilongjiang
# Description: as §5, §6, §7
# Rice = experiment: Transplanted rice safety evaluation; type: in vivo, rice (japonica rice/Indica rice); conditions: 60 g/ha; transplanted 3 leaf stage rice, 21 days after treatment
# Description: as §5
# In addition, the rice field soil that loaded into the 1/1,000,000 ha pot was leveled to keep water storage at 3-4 cm depth. The 3 leaf stage rice (japonica rice/Indica rice) was transplanted at 3 cm of transplanting depth the next day. The compound of the present invention was treated by the same way after 5 days of transplantation.
# as §7
# Digitaria sanguinalis [8] = experiment: Comparison experiment (post-emergence) against racemate / S configuration; type: in vivo; conditions: 30 g/ha; 3-4 weeks after sowing, 4-5 leaf-stage of weed, 25DAA
compound,measurement,setting,value
CCC[S@@+]([O-])c1c(C(F)(F)F)ccc(C(=O)Nc2nnc(C)o2)c1F [Compound 3],"weeding effect in post-emergence stage, activity level (growth control rate), Abutilon theophrasti",Abutilon theophrasti [1],5 (Level 5: growth control rate is above 85%)
same,"weeding effect in post-emergence stage, activity level (growth control rate), Amaranthus retroflexus",Amaranthus retroflexus,5 (Level 5: growth control rate is above 85%)
same,"weeding effect in post-emergence stage, activity level (growth control rate), Digitaria sanguinalis",Digitaria sanguinalis [2],5 (Level 5: growth control rate is above 85%)
same,"weeding effect in post-emergence stage, activity level (growth control rate), Echinochloa crusgali",Echinochloa crusgali [3],5 (Level 5: growth control rate is above 85%)
same,"weeding effect in post-emergence stage, activity level (growth control rate), Setaria viridis",Setaria viridis,5 (Level 5: growth control rate is above 85%)
same,"Results of comparison experiment, Abutilon theophrasti (30 g/ha)",Abutilon theophrasti [4],100%
same,"Results of comparison experiment, Green Setaria viridis (30 g/ha)","Green Setaria viridis; 30 g/ha, 25 DAA (Table 5)",75%
same,"Results of comparison experiment, Green Setaria viridis (60 g/ha)","Green Setaria viridis; 60 g/ha, 25DAA",100%
same,"Results of comparison experiment, Leptochloa chinensis (60 g/ha)","Leptochloa chinensis [5]; 60 g/ha, 3-4 weeks after sowing, 4-5 leaf-stage of weed, 25DAA",85%
same,"Results of comparison experiment, Leptochloa chinensis (125 g/ha)","Leptochloa chinensis [5]; 125 g/ha, 3-4 weeks after sowing, 4-5 leaf-stage of weed, 25 DAA (Table 5)",100%
same,"activity against key weeds such as Leptochloa chinensis, in words",Leptochloa chinensis [5]; summary of Table 5,better activity
same,"Results of comparison experiment, Rice(Longyang 16) (250 g/ha)","Rice(Longyang 16); 250 g/ha, 1.5-2 leaf-stage of direct seeding rice variety Longyang 16, 25 DAA",0%
same,"Results of comparison experiment, Rice(Longyang 16) (500 g/ha)","Rice(Longyang 16); 500 g/ha, 1.5-2 leaf-stage of direct seeding rice variety Longyang 16, 25 DAA",0%
same,"safety to rice (Longyang 16), in words",Rice(Longyang 16); summary of Table 5,higher safety
same,"Herbicidal effects of compounds, Echinochloa crusgali, 0-5 activity standard level",Echinochloa crusgali [6],5 (Level 5: growth control rate is above 85%)
same,"Herbicidal effects of compounds, Leptochloa chinensis, 0-5 activity standard level",Leptochloa chinensis [7],5 (Level 5: growth control rate is above 85%)
same,"Herbicidal effects of compounds, Monochoria vaginalis, 0-5 activity standard level",Monochoria vaginalis,5 (Level 5: growth control rate is above 85%)
same,"Herbicidal effects of compounds, Sagittaria trifolia, 0-5 activity standard level",Sagittaria trifolia,5 (Level 5: growth control rate is above 85%)
same,"Herbicidal effects of compounds, Rice, 0-5 activity standard level",Rice,0 (Level 0: growth control rate is less than 5%)
same,"Results of comparison experiment, Digitaria sanguinalis (30 g/ha)",Digitaria sanguinalis [8],100%
